Assay [1] deals with T1, cholera toxin B subunit (Vibrio cholerae serotype O1, UniProt P01556). The assay is classed as binding.
Assay [2] has as its target T1, cholera toxin B subunit. To be noted: cited from earlier work.
For assay [3], the target named is T2, L-selectin (Homo sapiens, UniProt P14151).
T2 sequence (P14151 39-372): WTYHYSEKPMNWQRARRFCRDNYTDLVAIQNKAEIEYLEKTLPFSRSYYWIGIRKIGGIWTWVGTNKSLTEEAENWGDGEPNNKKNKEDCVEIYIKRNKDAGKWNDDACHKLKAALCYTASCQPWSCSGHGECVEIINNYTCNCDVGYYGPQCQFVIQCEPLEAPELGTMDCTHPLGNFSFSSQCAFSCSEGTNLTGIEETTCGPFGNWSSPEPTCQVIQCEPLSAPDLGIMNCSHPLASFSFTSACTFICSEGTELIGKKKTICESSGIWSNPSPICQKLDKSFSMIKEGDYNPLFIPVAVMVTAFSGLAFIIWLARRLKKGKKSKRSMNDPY
The settings on record: cited from earlier work.

In assay [4] the target is T3, human α-thrombin (Homo sapiens, UniProt P00734).
T3 construct: screened against immobilized human α-thrombin; purchased Sigma Chemical Co
To be noted: affinity label; cited from earlier work.

We go through five compounds from US20060228754A1 (priority 1998, published 2006).

T1 sequence (P01556 22-124 limits assumed): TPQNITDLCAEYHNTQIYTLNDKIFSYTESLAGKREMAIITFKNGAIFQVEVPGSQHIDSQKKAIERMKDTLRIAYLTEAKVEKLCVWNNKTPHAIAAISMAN

In the case of `COC(=O)CCCCCCCCOC1OC(COC2OC(CO)C(O)C(O)C2O)C(O)C(OC2OC(CO)C(O)C(O)C2O)C1O` (stereo not drawn) [compound 3, αMan(1-3)[αMan(1-6)]βMan-OGr], the “break through (in words)” value in assay [1] was “broke through in the void volume”.

With `CC(=O)N[C@H]1[C@H](O[C@@H]2[C@H](O[C@]3(C(=O)O)C[C@H](O)[C@@H](NC(C)=O)[C@H]([C@H](O)[C@H](O)CO)O3)[C@@H](O)[C@H](O[C@H]3[C@H](O)[C@@H](O)[C@H](O)O[C@@H]3CO)O[C@@H]2CO)O[C@H](CO)[C@H](O)[C@@H]1O[C@@H]1O[C@H](CO)[C@H](O)[C@H](O)[C@H]1O` [compound 7, GM1 oligosaccharide], the Kd in assay [2] is roughly 100 nM. For the same compound, in assay [1], the break through volume was roughly 300 µL.

As to `CC(=O)NC1C(O)CC(OCCOC2OC(CO)C(O)C(OC3OC(CO)C(O)C(O)C3O)C2NC(C)=O)(C(=O)O)OC1C(O)C(O)CO` (stereo not drawn) [compound 8, βGal(1-3)βGalNAc(1-)-OCH2CH2O-(-2)αNeu5Ac], the break through time entry in assay [1] is given as “about 11 min”.

On to `O=P(O)(O)O[C@H]1[C@H](OP(=O)(O)O)[C@@H](OP(=O)(O)O)[C@H](OP(=O)(O)O)[C@@H](OP(=O)(O)O)[C@H]1OP(=O)(O)O` [phytic acid], for which the dissociation constant (Kd) in assay [3] was 1000 nM.

In the case of fPR-chloromethyl ketone, the Kd in assay [4] was roughly 50 nM.

What is called Kd is the equilibrium constant for the complex coming apart.
